Data from US10870638B2, “Pyridazinone compound or its salt, and herbicide containing it” (ISHIHARA SANGYO KAISHA, LTD., priority 2016, dated 2020).

How the values were obtained:
Type in all cases: in vivo
Conditions in all cases: 14th day after application
[1] = test system: barnyardgrass (Echinochloa crus-qalli L.); assay: Test Example 1: foliar treatment, growth inhibition rate on 14th day
Method in brief: (§1)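 Using a small sprayer, formulated compound in water (0.1 vol % surfactant, 1,000 L/ha) was applied to seedlings grown from seed in upland soil. Fourteen days on, growth state was observed and expressed as percent inhibition from 0 to 100.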

[2] = test system: corn (Zea mays L.); assay: as above
Method in brief: as §1

[3] = test system: crabgrass (Digitaria sanquinalis L.); assay: as above
Method in brief: as §1

[4] = test system: green foxtail (Setaria viridis L.); assay: as above
Method in brief: (§2)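 Visual 0–100% inhibition scoring (100 = complete kill) at 14 days after foliar treatment of soil-grown seedlings at species-specific leaf stages, with the compound sprayed as a wettable powder or emulsifiable concentrate dilution.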

[5] = test system: italian ryegrass (Lolium multiflorum Lam.); assay: as above
Method in brief: as §1

[6] = test system: redroot pigweed (Amaranthus retroflexus L.); assay: as above
Method in brief: as §1

[7] = test system: rice (Oryza sativa L.); assay: as above
Method in brief: as §2

[8] = test system: soybean (Glycine max Merr.); assay: as above
Method in brief: as §2

[9] = test system: wheat (Triticum aestivum L.); assay: as above
Method in brief: as §1

[10] = test system: wild oat (Avena fatua L.); assay: as above
Method in brief: as §2

[11] = test system: barnyardgrass (Echinochloa crus-qalli L.); assay: Test Example 2: soil application on the day after sowing, growth inhibition rate on 14th day
Method in brief: (§3)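 Upland soil pots; sowing, then next-day soil spraying of compound formulations (1,000 L/ha water) at defined a.i. doses. Day-14 visual rating of inhibition on a 0–100 scale, where 100 means complete kill.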

[12] = test system: corn (Zea mays L.); assay: as above
Method in brief: as §3

[13] = test system: crabgrass (Digitaris sanquinalis L.); assay: as above
Method in brief: as §3

[14] = test system: green foxtail (Setaria viridis L.); assay: as above
Method in brief: as §3

[15] = test system: prickly sida (Sida spinosa L.); assay: as above
Method in brief: as §3

[16] = test system: redroot pigweed (Amaranthus retroflexus L.); assay: as above
Method in brief: as §3

[17] = test system: rice (Oryza sativa L.); assay: as above
Method in brief: as §3

[18] = test system: soybean (Glycine max Merr.); assay: as above
Method in brief: as §3

[19] = test system: velvetleaf (Abutilon theophrasti MEDIC.); assay: as above
Method in brief: as §3

[20] = test system: wheat (Triticum aestivum L.); assay: as above
Method in brief: as §3

[21] = active ingredient amount 31 g/ha
[22] = active ingredient amount 500 g/ha

SMILES | Growth inhibition rate (%) Barnyardgrass [1, 21] | Growth inhibition rate (%) Corn [2, 21] | Growth inhibition rate (%) Crabgrass [3, 21] | Growth inhibition rate (%) Green foxtail [4, 21] | Growth inhibition rate (%) Italian ryegrass [5, 21] | Growth inhibition rate (%) Redroot pigweed [6, 21] | Growth inhibition rate (%) Rice [7, 21] | Growth inhibition rate (%) Soybean [8, 21] | Growth inhibition rate (%) Wheat [9, 21] | Growth inhibition rate (%) Wild oat [10, 21] | Growth inhibition rate (%) Barnyardgrass [11, 21] | Growth inhibition rate (%) Corn [12, 21] | Growth inhibition rate (%) Crabgrass [13, 21] | Growth inhibition rate (%) Green foxtail [14, 21] | Growth inhibition rate (%) Prickly sida [15, 21] | Growth inhibition rate (%) Redroot pigweed [16, 21] | Growth inhibition rate (%) Rice [17, 21] | Growth inhibition rate (%) Soybean [18, 21] | Growth inhibition rate (%) Velvetleaf [19, 21] | Growth inhibition rate (%) Wheat [20, 21] | other results
CC(=O)Oc1c(C)nn(C)c(=O)c1-c1cc(Oc2cc(C(F)(F)F)c(C(F)(F)F)cn2)ccc1C [Compound 2-126] | 100% | 100% | 100% | 100% | 100% | 0% | 93% | 20% | 99% | 100% | 100% | 30% | 98% | 100% | 0% | 0% | 0% | 0% | 0% | 10% | 
CC(=O)Oc1c(C)nn(C)c(=O)c1-c1cc(Oc2ccc3cc(Br)ccc3n2)ccc1C [Compound 2-127] | 100% | 0% | 30% | 100% | 78% | 0% | 70% | 0% | 100% | 90% | 93% | 0% | 10% | 78% | 0% | 0% | 0% | 0% | 0% | 0% | 
CC(=O)Oc1c(C)nn(C)c(=O)c1-c1cc(Oc2ncc(Br)cc2Cl)ccc1C [Compound 2-135] | 93% | 93% | 90% | 95% | 95% | 0% | 80% | 0% | 88% | 90% | 90% | 0% | 75% | 90% | 0% | 0% | 0% | 10% | 0% | 0% | 
CC(=O)Oc1c(C)nn(C)c(=O)c1-c1cc(Oc2nc3ccccc3o2)ccc1C [Compound 2-138] | 90% | 15% | 65% | 65% | 20% | 0% | 35% | 0% | 10% | 20% | 93% | 0% | 83% | 90% | 0% | 0% | 25% | 0% | 0% | 0% | 
CC(=O)Oc1c(C)nn(C)c(=O)c1-c1cc(Oc2ccc3ccccc3n2)ccc1C [Compound 2-142] |  |  |  |  |  |  |  |  |  |  |  |  |  |  |  |  |  |  |  |  | Growth inhibition rate (%) Barnyardgrass [1, 22]: 100%; Growth inhibition rate (%) Corn [2, 22]: 20%; Growth inhibition rate (%) Crabgrass [3, 22]: 83%; Growth inhibition rate (%) Green foxtail [4, 22]: 90%; Growth inhibition rate (%) Italian ryegrass [5, 22]: 0%; Growth inhibition rate (%) Redroot pigweed [6, 22]: 0%; Growth inhibition rate (%) Rice [7, 22]: 80%; Growth inhibition rate (%) Soybean [8, 22]: 25%; Growth inhibition rate (%) Wheat [9, 22]: 50%; Growth inhibition rate (%) Wild oat [10, 22]: 50%; Growth inhibition rate (%) Barnyardgrass [11, 22]: 100%; Growth inhibition rate (%) Corn [12, 22]: 0%; Growth inhibition rate (%) Crabgrass [13, 22]: 98%; Growth inhibition rate (%) Green foxtail [14, 22]: 93%; Growth inhibition rate (%) Prickly sida [15, 22]: 0%; Growth inhibition rate (%) Redroot pigweed [16, 22]: 0%; Growth inhibition rate (%) Rice [17, 22]: 90%; Growth inhibition rate (%) Soybean [18, 22]: 0%; Growth inhibition rate (%) Velvetleaf [19, 22]: 0%; Growth inhibition rate (%) Wheat [20, 22]: 0%
CC(=O)Oc1c(C)nn(C)c(=O)c1-c1cc(Oc2cnc3ccccc3c2)ccc1C [Compound 2-146] |  |  |  |  |  |  |  |  |  |  |  |  |  |  |  |  |  |  |  |  | Growth inhibition rate (%) Barnyardgrass [1, 22]: 99%; Growth inhibition rate (%) Corn [2, 22]: 85%; Growth inhibition rate (%) Crabgrass [3, 22]: 95%; Growth inhibition rate (%) Green foxtail [4, 22]: 95%; Growth inhibition rate (%) Italian ryegrass [5, 22]: 20%; Growth inhibition rate (%) Redroot pigweed [6, 22]: 0%; Growth inhibition rate (%) Rice [7, 22]: 75%; Growth inhibition rate (%) Soybean [8, 22]: 10%; Growth inhibition rate (%) Wheat [9, 22]: 50%; Growth inhibition rate (%) Wild oat [10, 22]: 80%; Growth inhibition rate (%) Barnyardgrass [11, 22]: 100%; Growth inhibition rate (%) Corn [12, 22]: 20%; Growth inhibition rate (%) Crabgrass [13, 22]: 100%; Growth inhibition rate (%) Green foxtail [14, 22]: 100%; Growth inhibition rate (%) Prickly sida [15, 22]: 0%; Growth inhibition rate (%) Redroot pigweed [16, 22]: 0%; Growth inhibition rate (%) Rice [17, 22]: 85%; Growth inhibition rate (%) Soybean [18, 22]: 0%; Growth inhibition rate (%) Velvetleaf [19, 22]: 50%; Growth inhibition rate (%) Wheat [20, 22]: 0%
CCc1ccc(Oc2nc3ccc(Cl)cc3s2)cc1-c1c(O)c(C)nn(C)c1=O [Compound 2-150] | 100% | 30% | 60% | 98% | 98% | 0% | 30% | 0% | 75% | 50% | 100% | 0% | 90% | 98% | 75% | 100% | 0% | 0% | 0% | 0% | 
